How the values were obtained:
Type in all cases: cell-based, human
LUHMES cells = experiment: Annonacin titration, calcein viability assay; details: 20 nM annonacin, 48 h, glucose-reduced medium
Description: Commercial annonacin (Cayman Chemical, Michigan, MI, USA) was diluted in DMSO and stored in small aliquots of 100 µM stock solution at -80 °C. For annonacin titration, LUHMES cells were seeded onto a 48-well microplate and intoxicated on day 6 of differentiation with different concentrations of annonacin, over a period of 48 h, in glucose-reduced differentiation medium of DMEM without glucose (Gibco), supplemented with 2.4 mM glucose, 1% N-2 supplement, 1 µg/ml tetracycline, […] GDNF, and 490 µg/ml dbcAMP to mimic the physiological concentration of glucose in the human brain[44],[45]. Each experimental condition was run in triplicates. Cell viability was measured by calcein viability assay, as detailed below. […]
The calcein AM green dye (Thermo Fisher Scientific) was diluted in DMSO to obtain a 1 mM stock solution. […] Cells were lysed in a 200 µl volume of 1% Triton™ X-100 in PBS (phosphate buffered saline) and the lysate transferred to a 96‐well black plate for the readout. The fluorescence signal was measured on a FLUOstar® Omega plate reader (BMG LabTech, Ortenberg, Germany) at λ Ex/Em = 485/530 nm and data was analyzed with the MARS data analysis software (BMG LabTech). For background correction, we subtracted the background control signal from the measured values of all experimental conditions. […]

total tau transcripts = experiment: Total tau mRNA by RT-qPCR; details: 20 nM annonacin alone, 48 h, vs control
Description: (§1) LUHMES cells were seeded on PLO/FN coated 6-well microplates and the pharmacological treatments were performed as previously explained. The cells were washed in HBSS, prior to being collected for mRNA isolation (RNeasy® Plus Mini Kit, Qiagen, Venlo, Netherlands), following the manufacturer’s instructions. The mRNA concentrations were determined on a Nano-Drop 2000c (Thermo Fisher Scientific) and 1 µg of mRNA was reverse-transcribed into cDNA with the iScript™ Reverse Transcription Supermix for RT-qPCR Kit (Bio-Rad) on a thermal cycler (SensoQuest, Göttingen, Germany). Real-time PCR was performed using SYBR™ Select Master Mix for CFX (Thermo Fisher Scientific) with 30 ng cDNA and 0.4 µM of primers against the respective target genes (Supplementary Table S3), in a 20 µl total volume, on a CFX96 Touch™ Real-Time Cycler (Bio-Rad). The relative expression of mRNA was calculated using the CFX Manager software (ΔΔCt method) from Bio-Rad, and the Ct values of the target-genes were normalized to the reference genes RPL22 and UBQLN1. The data were reported as fold change relative to the control (DMSO-treated) condition.

3R-tau transcripts = experiment: 3R-tau mRNA by RT-qPCR; details: 20 nM annonacin alone, 48 h, vs control
Description: as §1

NQO1 = NQO1 mRNA after siRNA transfection (RT-qPCR); details: Nrf2 siRNA transfected cells, annonacin model
Description: as §1, with “Real-time PCR was performed using SYBR™ Select Master Mix for CFX (Thermo Fisher Scientific) with 30 ng cDNA and 0.4 µM of primers against the respective target genes (Supplementary Table S3), in a 20 µl total volume, on a CFX96 Touch™ Real-Time Cycler (Bio-Rad).” left out, “The data were reported as fold change relative to the control (DMSO-treated) condition.” left out
LUHMES cells seeded on PLO/FN coated 48-well microplates were left to differentiate for 5 days, before being transfected with 25 nM of NRF2-targeting (gene ID 4780) or negative control siRNA (siTOOLs Biotech, Planegg, Germany), in Opti-MEM + GlutaMax medium (Thermo Fisher Scientific) with 0.4% of lipofectamine RNAiMax. […] Cell viability was determined by calcein assay, after 48 h of treatment, as explained before.

HO-1 = HO-1 protein levels by ELISA; details: 48 h
Description: Protein expression levels of HO-1 were determined by ELISA (enzyme-linked immunosorbent assay) using a commercial kit (#ab207621, Abcam) according to the manufacturer's instructions. For this purpose, cells were seeded onto PLO/FN coated 6-well microplates. After the pharmacological treatments, cells were washed with warm HBSS, trypsinized and pelleted as before, and finally lysed in 100 µl cell extraction buffer PTR provided by the kit. Sample concentration was measured by BCA, as previously mentioned, and 1 µg of total protein extract was loaded into the respective wells. All samples were run in duplicates and the absorbances were measured on a FLUOstar® Omega plate reader at λ 450 nm. For data analysis, we used the MARS software (BMG LabTech). First, we calculated the means of the absorbances for each condition. The mean value of the blank control (i.e., a condition with only sample diluent buffer) was subtracted from the mean values of all standard and experimental conditions. A 4PL-curve fit was plotted on Prism 9 software (GraphPad Software, San Diego, CA, USA), using the blank-corrected mean values of standard conditions. The obtained curve was used to determine the HO-1 protein concentration, followed by multiplication by the dilution factor to obtain the concentration of the target-protein in each sample.

Structure (SMILES): CCCCCCCCCCCC[C@@H](O)[C@H]1CC[C@H]([C@H](O)CCCC[C@H](O)CCCCC[C@@H](O)CC2=CC(C)OC2=O)O1 (stereo partly drawn) [annonacin]
- cell viability (LUHMES cells): approximately 50 % of the untreated condition
- total tau transcripts (total tau transcripts): significantly downregulated
- 3R-tau transcripts (3R-tau transcripts): downregulation of 3R-tau transcripts

Structure (SMILES): C=CC(C)(C)c1cc(/C=C/C(=O)c2ccc(O)cc2)c(OC)cc1O [licochalcone A]
- NQO1 expression despite Nrf2 knockdown (NQO1): still led to an induction of NQO1 expression

Structure (SMILES): Cn1c(Nc2nc3ccc(C(F)(F)F)cc3s2)nc2cc(C(=O)NCCOCCO)ccc21 [HPP-D]
- HO-1 protein expression (HO-1; absence of annonacin): significantly increased the HO-1 protein expression
- HO-1 protein expression (HO-1; presence of 20 nM annonacin): significantly increased the HO-1 protein expression

— publication PMC11362529, “Exploring the neuroprotective potential of Nrf2-pathway activators against annonacin toxicity” (Scientific Reports, 2024)
